In the supplement of paper PMC8671470:

Key:
Details in all cases: 72 h
HEL [1] = test: cell viability (% survival relative to DMSO control, bortezomib = 0%); higher = less cytotoxic
How it was run: (§1)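 After 72 h at 37 °C with 5% CO2, cell viability in 384-well plates was measured by CellTiter-Glo luminescence. The plates held compounds pre-printed at 1, 10, 100, 1000 or 10000 nM in duplicate, and cells from 10 AML and 5 CML lines seeded at densities titrated to linear growth. Percent survival is the duplicate mean, normalised to vehicle as 100% and a 10 µM positive control as 0%.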

K-562 [2] = test: as above
How it was run: as §1

KG-1 [3] = test: as above
How it was run: as §1

Mono-Mac-6 [4] = test: as above
How it was run: as §1

MOLM-13 [5] = test: as above
How it was run: as §1

KCL-22 [6] = test: as above
How it was run: as §1

KU-812 [7] = test: as above
How it was run: as §1

ML-2 [8] = test: as above
How it was run: as §1

THP-1 [9] = test: as above
How it was run: as §1

SHI-1 [10] = test: as above
How it was run: as §1

BV-173 [11] = test: as above
How it was run: as §1

HL-60 [12] = test: as above
How it was run: as §1

HEL [13] = system: HEL
How it was run: (§2)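 For the IC50, dose–response curves were fitted with a log-logistic model. The data came from fifteen myeloid leukaemia cell lines grown in RPMI 1640 at densities in the linear growth range and incubated in 384-well plates for 72 h at 37 °C under 5% CO2. Doses were five tenfold steps from 1 to 10,000 nM in duplicate, and luminescent ATP viability was normalised to vehicle and to a positive control at 10 µM before four-parameter fitting.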

K-562 [14] = system: K-562
How it was run: as §2

KG-1 [15] = system: KG-1
How it was run: as §2

Mono-Mac-6 [16] = system: Mono-Mac-6
How it was run: as §2

MOLM-13 [17] = system: MOLM-13
How it was run: as §2

KCL-22 [18] = system: KCL-22
How it was run: as §2

KU-812 [19] = system: KU-812
How it was run: as §2

NOMO-1 = system: NOMO-1
How it was run: as §2

ML-2 [20] = system: ML-2
How it was run: as §2

THP-1 [21] = system: THP-1
How it was run: as §2

SHI-1 [22] = system: SHI-1
How it was run: as §2

BV-173 [23] = system: BV-173
How it was run: as §2

LAMA-84 = system: LAMA-84
How it was run: as §2

MV4-11 = system: MV4-11
How it was run: as §2

HL-60 [24] = system: HL-60
How it was run: as §2

HL-60 [25] = test: cell viability (% survival relative to DMSO control); higher = less cytotoxic
How it was run: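 HL-60 cells in RPMI 1640 with 10% FBS were rescreened against the full library on 384-well plates at five tenfold concentrations, 1–10,000 nM, in duplicate. Each screen was run with DMSO or 100 nM of one of three metabolic inhibitors, for 72 h at 37 °C, 5% CO2. Viability was read by CellTiter-Glo and normalised to DMSO and 10 μM proteasome-inhibitor wells. Where given, area under the curve came from four-parameter log-logistic fits (drc, PharmacoGx).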

CN1CCN(CCCN2c3ccccc3Sc3ccc(C(F)(F)F)cc32)CC1 [Trifluoperazine]
cell viability [%]
Details	1 nM	10 nM	100 nM	1000 nM	10000 nM
BV-173 [11]	97.3	94.8	103	97.6	55.3
HEL [1]	110	82.7	99.9	86.5	65.1
HL-60 [12]	100	101	88.6	95.3	20.2
K-562 [2]	113	89.5	85.1	92	0.986
KCL-22 [6]	108	109	115	78.1	42.1
KG-1 [3]	106	103	100	79.8	42.8
KU-812 [7]	101	94	97.8	86.3	65.6
ML-2 [8]	102	102	103	95.9	48.4
MOLM-13 [5]	105	85.4	101	93.2	57.7
Mono-Mac-6 [4]	108	112	90.4	83.2	66.6
SHI-1 [10]	113	96.2	103	92.1	64.4
THP-1 [9]	97.9	102	100	87.6	72.4

Details	IC50 (cell viability) [µM]
BV-173 [23]	> 10
HEL [13]	> 10
HL-60 [24]	5.18
K-562 [14]	2.91
KCL-22 [18]	3.49
KG-1 [15]	3.54
KU-812 [19]	> 10
LAMA-84	> 10
ML-2 [20]	9.55
MOLM-13 [17]	> 10
MV4-11	9.52
Mono-Mac-6 [16]	> 10
NOMO-1	> 10
SHI-1 [22]	> 10
THP-1 [21]	> 10

cell viability [%], HL-60 [25]
Details	0.001 µM	0.01 µM	0.1 µM	1 µM	10 µM
co-treatment: AZD3965 100 nM	101	100	97.8	101	81.7
co-treatment: DMSO vehicle	101.2	103	102	102	90.6
co-treatment: GSK2194069 100 nM	94	101	96	101	70.4
co-treatment: pictilisib 100 nM	97	95.9	108	97.2	47.7

CCCc1nc(C)c2c(=O)nc(-c3cc(S(=O)(=O)N4CCN(CC)CC4)ccc3OCC)[nH]n12 [Vardenafil]
cell viability [%]
Details	1 nM	10 nM	100 nM	1000 nM	10000 nM
BV-173 [11]	98.3	80.3	101	108	82.8
HEL [1]	91.9	111	94.4	102	93.7
HL-60 [12]	107	115	89.2	112	102
K-562 [2]	109	107	93.8	90.8	92.6
KCL-22 [6]	105	110	98.3	95.8	94.6
KG-1 [3]	95.4	95.9	92.8	110	107
KU-812 [7]	95.4	106	92	102	102
ML-2 [8]	98.8	96.3	88	97.4	110
MOLM-13 [5]	107	123	71.2	91.2	94.5
Mono-Mac-6 [4]	102	83	106	95.1	102
SHI-1 [10]	102	115	89.8	99.7	101
THP-1 [9]	93.8	85	107	108	96.5

Details	IC50 (cell viability) [µM]
BV-173 [23]	> 10
HEL [13]	> 10
HL-60 [24]	> 10
K-562 [14]	> 10
KCL-22 [18]	> 10
KG-1 [15]	> 10
KU-812 [19]	> 10
LAMA-84	> 10
ML-2 [20]	> 10
MOLM-13 [17]	> 10
MV4-11	> 10
Mono-Mac-6 [16]	> 10
NOMO-1	> 10
SHI-1 [22]	> 10
THP-1 [21]	> 10

cell viability [%], HL-60 [25]
Details	0.001 µM	0.01 µM	0.1 µM	1 µM	10 µM
co-treatment: AZD3965 100 nM	98.1	100	96.8	108	100
co-treatment: DMSO vehicle	98.07	99.7	84.9	98.5	103
co-treatment: GSK2194069 100 nM	97.9	98.3	88.3	108.1	92.4
co-treatment: pictilisib 100 nM	101	104	93	104	107
